According to PMC9281569, “Two HCN4 Channels Play Functional Roles in the Zebrafish Heart” (Frontiers in Physiology, 2022):

Legend:
[1] = system: developing zebrafish embryos; assay: Antisense morpholino knockdown: heart rate of zebrafish embryos; format: in vivo, zebrafish (Danio rerio); conditions: Supplementary Figure S2, 52 hpf
[2] = system: developing zebrafish embryos; assay: as above; format: in vivo, zebrafish (Danio rerio); conditions: 200 μM MO into 1-cell embryos
Procedure: The heart rate of zebrafish embryos was measured under an Olympus MVX10 microscope at room temperature. After zebrafish embryos were acclimated to the new environment (room temperature, light), heart rate was counted by eye.
(§1) Morpholino antisense oligos (MO) were purchased from Gene Tools (Philomath, OR, United States) ([Fujii et al., 2020]). Zebrafish 1-cell embryos were injected with approximately 5 nL of MO solution at a concentration of 200 μM (approximately 10 ng/embryo).
Since DrHCN4 and DrHCN4L have similar sensitivities to the HCN inhibitors, individual gene knockdowns would be required for evaluating each channel’s role in heart rate regulation. Before knocking down each gene, we first confirmed that both HCN4 channels (DrHCN4 and DrHCN4L) were expressed in day 1, day 3, and day 7 embryos and in the heart and brain of adult fish (Figure 6A). We next investigated whether the knockdown of each gene affects heart rate in zebrafish. The expression of each gene was knocked down by using antisense morpholino (MO), which is commonly used in zebrafish ([Blum et al., 2015]; [Jou et al., 2017]; [Fujii et al., 2020]). MO solutions were injected into 1-cell embryos of zebrafish. […] Embryos were injected with control MO, DrHCN4 MO, and DrHCN4L MO at concentrations of 200 μM or with a mixture of DrHCN4 MO and DrHCN4L MO (200 μM for each). At 24 h after injection of MO, there was a slight decrease of heart rate in embryos injected with DrHCN4 MO (44 ± 2 bpm, p = 0.049) and DrHCN4L MO (45 ± 2 bpm, p = 0.092) compared to the heart rate in embryos injected with control MO (54 ± 1 bpm). […] After 48 h, heart rate was considerably lower in all three groups compared to that in the control group (135 ± 4 bpm): DrHCN4 MO (110 ± 3 bpm, p < 0.001), DrHCN4L MO (111 ± 1 bpm, p = 0.001), and mixture of DrHCN4 MO and DrHCN4L MO (116 ± 7 bpm, p = 0.014). However, at 72 h after MO injection, heart rate in all three groups had returned to the same level as that in the control group (145 ± 5 bpm): DrHCN4 MO (136 ± 3 bpm, p = 0.509), DrHCN4L MO (141 ± 5 bpm, p = 0.921), and mixture of DrHCN4 MO and DrHCN4L MO (147 ± 7 bpm, p = 0.991) (Figure 6B and Table 6).
(§2) FIGURE 6 Effects of HCN4 channel knockdown on zebrafish. (A) Expression of DrHCN4 and DrHCN4L in one (1), three (3), and seven (7) day embryos/larvae as well as in the heart (H) and brain (B) of adult fish was confirmed by RT-PCR. Arrows indicate the DNA ladder markers of 1,000 bp and 500 bp. (B) Heart rates at 24, 48, and 72 h are shown in bar graphs for 200 μM MO-injected zebrafish embryos: control MO (n = 20), DrHCN4 MO (n = 10), DrHCN4L MO (n = 10), and mixed DrHCN4 and DrHCN4L MO (n = 10). Statistical analysis was performed by Dunnett’s test. (C) Representative examples of zebrafish injected with control MO, DrHCN4 MO, DrHCN4L MO, and mixed DrHCN4 and DrHCN4L MO. […] Bar, 200 μm. (D) Ratios of normal embryos, pericardial edema, and death at 48 h after injection of 200 µM MO: control MO (n = 136), DrHCN4 MO (n = 75), DrHCN4L MO (n = 34), and mixed DrHCN4 and DrHCN4L MO (n = 30). (E) Pericardial edema and death ratios at 72 h after injection of 200 µM MO. Control MO (n = 136), DrHCN4 MO (n = 75), DrHCN4L MO (n = 34), and mixed DrHCN4 and DrHCN4L MO (n = 30).

[3] = system: adult zebrafish; set-up: method as in Marchant and Farrell, 2019; conditions: intraperitoneal injection, depending on test temperatures, ref Marchant and Farrell, 2019; cited from earlier work
[4] = system: zebrafish embryos; assay: Incidence of pericardial edema in MO-injected zebrafish embryos; format: in vivo, zebrafish (Danio rerio); conditions: embryos surviving first 24 h
Procedure: as §1, §2
Pericardial edema is often observed in embryonic zebrafish with heart failure ([Narumanchi et al., 2021]). We determined the incidence of edema in zebrafish injected with 200 μM MO. We only examined zebrafish embryos that survived for the first 24 h after MO injection, and the rates of edema occurrence were determined at 48 and 72 h after injection. […] After 72 h, the proportions of embryos with edema increased to 79, 94, and 87% (Figure 6E).

[5] = 48 h after injection of 200 μM MO
[6] = 72 h after injection of 200 μM MO

Compound	Effect of injection on heart rate [1]	Heart rate ([2]; 24 h after MO injection)	Heart rate ([2]; 48 h after MO injection)	Heart rate ([2]; 72 h after MO injection)	Reduction of maximum heart rate [3]	Embryos showing pericardial edema [4, 5]	Embryos showing pericardial edema [4, 6]
5′-CCTCTTACCTCAGTTACAATTTATA -3′ [Control MO]	did not affect heart rate	54 ± 1 bpm	135 ± 4 bpm	145 ± 5 bpm	–	–	–
COc1ccc(CCN(C)CCCN2CCc3cc(OC)c(OC)cc3CC2=O)cc1OC [zatebradine]	–	–	–	–	38–65%	–	–
5′-GGCGACGCTGGCTGAAAAATAGGTC -3′ (all phosphorodiamidate morpholino (PMO)) [DrHCN4L MO, Morpholino antisense oligo against DrHCN4L (Gene Tools)]	–	45 ± 2 bpm	111 ± 1 bpm	141 ± 5 bpm	–	62%	94%
5′-GTAATTACTGCCACCGTGCACCACA-3′ (all phosphorodiamidate morpholino (PMO)) [DrHCN4 MO, Morpholino antisense oligo against DrHCN4 (Gene Tools)]	–	44 ± 2 bpm	110 ± 3 bpm	136 ± 3 bpm	–	59%	79%
